We go through four molecules from patent US8530445B2, “Combinations of sapacitabine or CNDAC with DNA methyltransferase inhibitors such as decitabine and procaine” (Cyclacel Limited, priority 2008, dated 2013).

Where two headings read alike, the source gives them in different places.

One series concerns colon cancer. The settings on record: model of colon cancer; cited from earlier work.
For series [1] the following is noted: phase I, patients with a variety of cancers; cited from earlier work.
For series [2], the system named is HL60 cells. Kind of series: Immunoblotting of cell lysates for cleaved PARP. The settings on record: HL-60; 0.13 μM azacitidine, 0.13 μM CNDAC; 48 h-96 h total treatment. Format: cell-based. How it is done:
Samples were collected at various times (indicated) after CNDAC addition. Cells were lysed, fractionated by SDS-PAGE, transferred to nitrocellulose and probed for cleaved PARP (a marker of apoptosis). Data is representative of two independent experiments.
HL-60 cells were treated with DMSO, 0.13 μM azacitidine, 0.13 μM CNDAC or both agents (AC). The schedule involved 24 h azacitidine or DMSO pretreatment followed by the addition of CNDAC or DMSO for the indicated times. Cells were harvested after 48 h-96 h total treatment time. The resulting lysates (20 μg) were resolved on 12% acrylamide Bis-Tris gels, transferred to nitrocellulose membranes and probed with the antibodies shown in FIG. 3. […] Cleaved PARP was also seen in the combination treatment.
(A western blot detects proteins with antibodies after separation by electrophoresis.)

Series [3] has as its system HL60 cells. Kind of series: Cell cycle analysis (propidium iodide, flow cytometry). The settings on record: azacitidine 128 nM 72 and 96 hours, CNDAC 133 nM by 48 hours. Type of series: cell-based. How it is done:
(§1) (A) HL60 cells were treated with 128 nM azacitidine for 24 hours followed by 128 nM azacitidine and 133 nM CNDAC for a further 48 hours. Cells were fixed and DNA stained with propidium iodide. Single agent controls were also included. (B) HL60 cells were treated with 128 nM azacitidine for 24 hours followed by 128 nM azacitidine and 133 nM CNDAC for a further 48 hours. Cells were stained with annexin V that detected apoptotic cells and propidium iodide to detect viable cells. Single agent controls were also included. Data is the average of two samples and representative of at least two independent experiments.
(A) HL60 cells were treated with 128 nM azacitidine for 24 hours followed by 128 nM azacitidine and 133 nM CNDAC for a further 72 hours. Cells were fixed and DNA stained with propidium iodide. Single agent controls were also included. […] Cells were stained with annexin V that detected apoptotic cells and propidium iodide to detect viable cells. […]
For combination analysis, cells were treated with azacitidine for 24 hours followed by a further 48 or 72 hours with azacitidine and CNDAC. […] Prior to analysis cells were washed twice in PBS containing 1% BSA followed by staining with propidium iodide (50 μg/ml) and ribonuclease A (50 μg/ml) in PBS containing 0.1% Triton X-100 and the cell cycle profile was determined by flow cytometry.
(In general: In flow cytometry, cells or beads pass a laser one at a time.)

Series [4] concerns HL60 cells. Description: Annexin V staining (apoptosis, flow cytometry). Format: cell-based. The settings on record: for apoptotic cells (annexin V): 96 hours total treatment, azacitidine 128 nM, CNDAC 133 nM for 72 hours; for proportion of apoptotic cells (annexin V, in words): azacitidine 72 and 96 hours, CNDAC 48 or 72 hours. As to the method: as §1
as §1, with “72” for “48”
Single agent treatments were also performed as controls.

For series [5], the system named is cell line that is resistant to cytarabine. The settings on record: cited from earlier work.

Turning to `CCCCCCCCCCCCCCCC(=O)Nc1ccn(C2O[C@H](CO)[C@@H](O)[C@@H]2C#N)c(=O)n1` (stereo partly drawn) [(I), 1-(2-C-cyano-2-dioxy-β-D-arabino-pentofuranosyl)-N^4-palmitoyl cytosine], the anticancer activity entry with colon cancer is “strong anticancer activity”. Further, in series [1], the dose limiting toxicity result is “myelosuppression” and the tolerability result is given as “well tolerated”.
On to `N#C[C@H]1[C@H](O)[C@@H](CO)O[C@H]1n1ccc(N)nc1=O` [CNDAC, 1-(2-C-Cyano-2-deoxy-β-D-arabino-pentafuranosyl)-cytosine], for which the “induction of cleaved PARP (marker of apoptosis)” value in the series on HL60 cells [2] is “induced cleaved PARP at later time points”. Also, in the series on HL60 cells [3], the “effect on cell cycle profile (in words)” value is on record as “accumulation of cells in G2/M”. In addition, in the series with HL60 cells [4], the “apoptotic cells (annexin V)” value stood at 16.5% and the “proportion of apoptotic cells (annexin V, in words)” value is “little effect”.
For the molecule `Nc1ncn([C@@H]2O[C@H](CO)[C@@H](O)[C@H]2O)c(=O)n1` [azacitidine, 4-amino-1-β-D-ribofuranosyl-s-triazin-2(1H)-one, reference compound], in the series on HL60 cells [2], the “induction of cleaved PARP (marker of apoptosis)” value is recorded as “small induction in cleaved PARP at early time points”. Further, the “effect on cell cycle profile (in words)” value in the series with HL60 cells [3] was “accumulation of cells in sub-G1, G2/M, and >G2/M”. Also, in the series on HL60 cells [4], the “apoptotic cells (annexin V)” value was 30.5% and the “proportion of apoptotic cells (annexin V, in words)” value is “small increase in the proportion of apoptotic cells”.
In the case of `Nc1ccn([C@@H]2O[C@H](CO)[C@@H](O)[C@@H]2O)c(=O)n1` [cytarabine], the IC50 (commonly the concentration at which inhibition is half-maximal) was 0.55 µM in series [5] (after 5-azacitidine (upregulation of dCK)) and 12.5 µM in series [5] (before 5-azacitidine).
